Results from paper PMC9613470, “Diverse MarR bacterial regulators of auxin catabolism in the plant microbiome” (Nature Microbiology, 2022).
pKd: −log10 of the molar value.

Key:
[1] = molecular target: MarR_73 S28A H32A R46A; test: ITC IAA binding to MarR_73 S28A H32A R46A mutant; parameters: species or system Variovorax paradoxus CL14; details: 25 °C
Method: The coding sequence for each gene can be found in Supplementary Table 10. MarR expression plasmids were synthesized as codon-optimized genes for E. coli expression by BioBasic in the pLIC-His N-term vector (pMCSG7) and transformed into E. coli BL21 (DE3) Gold cells for expression. […] At an OD600 of 0.8, protein expression was induced by the addition of 0.1 mM IPTG and incubation continued overnight. Cells were collected by centrifugation at 4,500 × g for 20 min at 4 °C in a Sorvall (model RC-3B) swinging bucket centrifuge. Cell pellets were resuspended in buffer A (20 mM potassium phosphate, pH 7.4, 50 mM imidazole, 500 mM NaCl), DNase, lysozyme and a Roche Complete EDTA-free protease inhibitor tablet. Resuspended cells were sonicated and clarified via centrifugation at 17,000 × g for 60 min in a Sorvall (model RC-5B) swinging bucket centrifuge. The lysate was applied to a nickel-nitrilotriacetic acid HP column (GE Healthcare) on an Aktaxpress Fast Performance Liquid Chromatography (FPLC) system (Amersham Bioscience) and washed with buffer A. Protein was eluted with buffer B (20 mM potassium phosphate, pH 7.4, 500 mM imidazole, 500 mM NaCl). Fractions containing the protein of interest were combined and passed over a HiLoadTM 16/60 SuperdexTM 200 gel filtration column. Proteins were eluted in S200 buffer (20 mM HEPES, pH 7.4, 300 mM NaCl). […]

[2] = molecular target: Variovorax paradoxus CL14 MarR_73 (Variovorax paradoxus, UniProt C5CSP2); test: biochemical; format: binding; details: ITC, 25 °C, 20 mM HEPES pH 7.4, 50 mM NaCl, 0.5% DMSO, mean of two measurements ± standard error
Variovorax paradoxus CL14 MarR_73, sequence (C5CSP2 entry or part of it): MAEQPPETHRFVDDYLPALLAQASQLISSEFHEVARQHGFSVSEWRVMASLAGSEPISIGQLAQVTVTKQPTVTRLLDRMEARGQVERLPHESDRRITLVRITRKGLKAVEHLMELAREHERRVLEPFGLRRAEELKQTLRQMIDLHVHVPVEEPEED
Method: The coding sequence for each gene can be found in Supplementary Table 10. MarR expression plasmids were synthesized as codon-optimized genes for E. coli expression by BioBasic in the pLIC-His N-term vector (pMCSG7) and transformed into E. coli BL21 (DE3) Gold cells for expression. […] At an OD600 of 0.8, protein expression was induced by the addition of 0.1 mM IPTG and incubation continued overnight. Cells were collected by centrifugation at 4,500 × g for 20 min at 4 °C in a Sorvall (model RC-3B) swinging bucket centrifuge. Cell pellets were resuspended in buffer A (20 mM potassium phosphate, pH 7.4, 50 mM imidazole, 500 mM NaCl), DNase, lysozyme and a Roche Complete EDTA-free protease inhibitor tablet. Resuspended cells were sonicated and clarified via centrifugation at 17,000 × g for 60 min in a Sorvall (model RC-5B) swinging bucket centrifuge. The lysate was applied to a nickel-nitrilotriacetic acid HP column (GE Healthcare) on an Aktaxpress Fast Performance Liquid Chromatography (FPLC) system (Amersham Bioscience) and washed with buffer A. Protein was eluted with buffer B (20 mM potassium phosphate, pH 7.4, 500 mM imidazole, 500 mM NaCl). Fractions containing the protein of interest were combined and passed over a HiLoadTM 16/60 SuperdexTM 200 gel filtration column. Proteins were eluted in S200 buffer (20 mM HEPES, pH 7.4, 300 mM NaCl). Fractions were combined and concentrated for long-term storage at −80 °C.
All ITC measurements were performed at 25 °C using an Auto-ITC200 microcalorimeter (MicroCal/GE Healthcare). The buffer employed was 20 mM HEPES, pH 7.4, 50 mM NaCl and 0.5% dimethly sulfoxide (DMSO) for protein/ligand binding and 20 mM HEPES, pH 7.4 and 300 mM NaCl for DNA/protein binding experiments. For ligand binding experiments, the calorimetry cell (volume […]) was loaded with MarR wild-type, mutant or homologue protein at a concentration of 50 μM. The syringe was loaded with a ligand concentration of 0.5 or 2 mM. […] A typical injection protocol included a single 0.2 μl first injection followed by 20 1.5 μl injections of the syringe sample into the calorimetry cell. The spacing between injections was kept at 180 s and the reference power at 8 μcal s^−1. […] Two independent ITC measurements were performed for each condition.

[3] = tested on: A. thaliana ecotype Col-0; test: Root growth inhibition assay (primary root elongation); format: in vivo, Arabidopsis thaliana; details: Arabidopsis seedlings with IAA alone, 1 µM IAA
Method: A. thaliana ecotype Col-0 seeds were sterilized in 70% household bleach, 0.2% Tween-20 for 10 min with vigorous agitation and then rinsed 10 times with sterile distilled water. Seeds were stratified at 4 °C in sterile distilled water for 1–2 d. […] Then 8 to 10 plants were aseptically transferred to 12 ×12 cm plates containing 0.5x MS agar medium without sucrose where the medium surface was spread with the bacterial inoculum. […] The plant root tip location was marked on plates after transfer to record the initial root tip position. […] Plates were imaged on a document scanner and primary root elongation was determined using imageJ to quantify the change in root tip position from the initial to the final position.
Individual bacterial strains were grown on agar plates of the media types specified above at 28 °C. […] The optical density at 600 nm (OD600) was measured for each washed strain and normalized to OD600 of 0.01 in 10 mM MgCl2. […]
The 175-member synthetic community (SC185-10V) was prepared as described for the 185-member synthetic community used previously[14] by leaving out the 10 isolates from the genus Variovorax. […] The OD600 of the strains in each well was measured and the strains were combined while normalizing the OD600 of each strain in the pool. […] The OD600 values of the 10 cultures were measured and the 10 strains were pooled while normalizing the OD600 of each strain to the same value. […]

[4] = molecular target: T1, Enterobacter soli LF7 MarR_Es (Enterobacter soli, UniProt A0AAW8H3I9, A146S); test: ITC IAA binding to MarR_Es; details: 25 °C, IacR
T1 sequence (A0AAW8H3I9 1-157 A146S): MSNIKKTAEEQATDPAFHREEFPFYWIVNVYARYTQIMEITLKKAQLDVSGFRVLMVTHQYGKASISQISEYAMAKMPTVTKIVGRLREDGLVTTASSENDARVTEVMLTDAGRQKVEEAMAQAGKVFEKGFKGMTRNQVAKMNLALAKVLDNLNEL
Method: All ITC measurements were performed at 25 °C using an Auto-ITC200 microcalorimeter (MicroCal/GE Healthcare). The buffer employed was 20 mM HEPES, pH 7.4, 50 mM NaCl and 0.5% dimethly sulfoxide (DMSO) for protein/ligand binding and 20 mM HEPES, pH 7.4 and 300 mM NaCl for DNA/protein binding experiments. For ligand binding experiments, the calorimetry cell (volume 200 ml) was loaded with MarR wild-type, mutant or homologue protein at a concentration of 50 μM. The syringe was loaded with a ligand concentration of 0.5 or 2 mM. […] A typical injection protocol included a single 0.2 μl first injection followed by 20 1.5 μl injections of the syringe sample into the calorimetry cell. The spacing between injections was kept at 180 s and the reference power at 8 μcal s^−1. The data were analysed using Origin for ITC version 7.0 software supplied by the manufacturer and fit well to a one-site binding model. Two independent ITC measurements were performed for each condition.

Question: With O=C(O)Cc1c[nH]c2ccccc12 [IAA, indole-3-acetic acid] as the compound, how does the KD [1] read?
Answer: No Binding

Question: And the “N (ligand binding stoichiometry to the MarR monomer)” value [2]?
Answer: 0.732 ± 0.036

Question: What about the “N (ligand binding stoichiometry to the MarR monomer)” value ([2]; listed as Indole-3-Acetic Acid (IAA)) of the same compound?
Answer: 0.73 ± 0.04

Question: And the pKd ([2]; KD)?
Answer: 6.39

Question: What about the “root growth inhibition (RGI) phenotype” value [3] of the same compound?
Answer: severe RGI phenotype

Question: What about the N1 [4] of the same compound?
Answer: 0.967 ± 0.006
